Read-outs that look alike come from different tables or passages of the source.
Legend:
[1] = test system: STAT-3; test: STAT-3 DNA binding in BEAS-2B cells (TransAM); type: cell-based, human; settings: IFNγ + TNFα, inhibitor 10^-6M
Experimental: STAT phosphorylation, nuclear translocation and DNA binding was determined using TransAM assays (Actif Motif, Rixensart, Belgium). Cells were treated with JAK inhibitors for 30 min prior to stimulation for 1h. Nuclear extracts were prepared using the Actif Motif assay reagents. Briefly, the nuclear extracts (10 μg) were incubated in DNA coated plates for 1h. After washing, antibodies supplied with the TransAM kit that were specific for the active forms of STAT1, STAT3, STAT5A and STAT5B were added to the wells and incubated for a further hour. The plates were washed and a secondary HRP-labelled anti-goat Ig antibody was added and the plates incubated for an hour. After washing, the assay was developed using the TMB substrate provided and the reaction stopped using 2N sulphuric acid. The plates were read at 450nm with a reference filter of 610nm. Data were then normalised to non-stimulated cells and calculated as fold change from baseline.
After 1 h, nuclear extracts of the cells were prepared and TransAM assays for STAT-1 (panel a) and STAT-3 (panel b) were performed. Data are presented as fold change from baseline ± SEM; n = 4.

[2] = test system: human primary airway epithelial cells; test: Release of CXCL9, CXCL10 and CXCL11 from human primary airway epithelial cells (ELISA); type: cell-based; settings: for IC50: pooled primary cells; for IC50 / EC50: pre-treated 1h
Experimental: BEAS-2B cells (catalogue number CRL-9609) were purchased directly from American Type Culture Collection (Rockville, MD). Keratinocyte serum-free medium (K-SFM), bovine pituitary extract (BPE), and recombinant human epidermal growth factor (EGF) were purchased from Invitrogen (Paisley, UK). BEAS-2B cells were cultured in K-SFM containing 50 μg/ml BPE and 5 ng/ml EGF at 37°C in a humidified atmosphere comprising 5% (v/v) CO2 in air. Cells were cultured as monolayers in growth factor-free media for 24 h prior to stimulation. Human primary airway epithelial cells were cultured as monolayers from bronchial brushings from both male and female subjects (Table 1) and cultured in LHC-9 media (Invitrogen, Paisley, UK) in collagen (1% w/v) coated flasks. Samples were obtained from non-smokers, smokers and patients with COPD. […] The subjects were matched for age and smokers and COPD patients for smoking history (Table 1). All subjects gave informed written consent and the study was approved by the NRES London-Chelsea Research Ethics committee, study number 09/H0801/85.
Cell-free supernatants were removed 20h post-stimulation and assayed for CXCL9, CXCL10 and CXCL11 using Duoset ELISA kits (R & D Systems Europe, Abingdon, UK) according to the manufacturer’s instructions. The detection limits of these assays are 62pg/ml, 31pg/ml, and 7.8 pg/ml respectively.
Data are presented as mean ± SEM of ‘n’ independent determinations. Concentration-response curves were analysed by least-squares, non-linear iterative regression with the ‘Graphpad Prism’ curve fitting program (GraphPad software, San Diego, USA) and IC50 values were subsequently interpolated from curves of best-fit. Statistical differences were determined using the Kruskal–Wallis test followed by Dunn's multiple comparison test or a Wilcoxon signed rank test as appropriate. Values of P<0.05 were considered significant.
Media was harvested and the concentrations of CXCL9 (panels a and d), CXCL10 (panels b and e) and CXCL11 (panels c and f) were measured by ELISA. Data are presented as mean ± SEM, n = 10–13.

[3] = test system: BEAS-2B cells; test: mRNA expression of CXCL9, CXCL10 and CXCL11 in BEAS-2B cells (Taqman RT-PCR); type: cell-based, human; settings: BEAS-2b, pretreated 1h, IFNγ or IFNγ with TNFα for 4h
Experimental: Total RNA was extracted from cells and reverse transcribed, as described previously. Gene expression was determined by Taqman real-time PCR on a 7500 Real Time PCR system (Applied Biosystems, Life Technologies Ltd, Paisley, UK) using PCR Master Mix Reagent and ‘assays on demand’ (Applied Biosystems). HPRT1 gene expression was used as the housekeeping gene and data presented as δδCT relative to baseline.
Gene expression of CXCL9 (panels a and b), CXCL10 (panels c and d) and CXCL11 (panels e and f) were quantified by Taqman RT-PCR. Data are presented as fold change form stimulus ± SEM; n = 3 where 1 indicates the level of mRNA induced by IFNγ or IFNγ + TNFα in the absence of inhibitors.

[4] = test system: human primary airway epithelial cells; test: IL-6 release from IFNγ + TNFα-stimulated human primary airway epithelial cells; type: cell-based; settings: for IC50: IFNγ + TNFα, n = 7
Experimental: In order to determine whether any of the inhibitory effects of the JAK inhibitors could be attributed to cell death, MTT assays were performed at the end of every experiment. […] In order to address this issue, the levels of IL-6 released from cells stimulated with IFNγ + TNFα were measured.

C[C@@H]1CCN(C(=O)N2CCCC2)C[C@@H]1N(C)c1ncnc2[nH]ccc12 [PF956980]
effect on STAT-3 binding to DNA [1]: suppressed | IC50 ([2]; IFNγ (10ng/ml) 20h, read-out: IC50, release of CXCL9): 680 ± 120 nM | IC50 ([2]; IFNγ (10ng/ml) 20h, read-out: IC50, release of CXCL10): 960 ± 190 nM | IC50 ([2]; IFNγ (10ng/ml) 20h, read-out: IC50, release of CXCL11): 760 ± 120 nM | IC50 ([2]; IFNγ+TNFα (10ng/ml) 20h, read-out: IC50, release of CXCL9): 520 ± 170 nM | IC50 ([2]; IFNγ+TNFα (10ng/ml) 20h, read-out: IC50, release of CXCL10): 2120 ± 240 nM | IC50 ([2]; IFNγ+TNFα (10ng/ml) 20h, read-out: IC50, release of CXCL11): 1580 ± 330 nM | EC50 ([2]; primary cells from COPD patients, IFNγ (10 ng/ml) 20h, read-out: EC50, release of CXCL9): 630 ± 90 nM | EC50 ([2]; primary cells from COPD patients, IFNγ (10 ng/ml) 20h, read-out: EC50, release of CXCL10): 530 ± 10 nM | EC50 ([2]; primary cells from COPD patients, IFNγ (10 ng/ml) 20h, read-out: EC50, release of CXCL11): 820 ± 250 nM | EC50 ([2]; primary cells from COPD patients, IFNγ +TNFα (10 ng/ml) 20h, read-out: EC50, release of CXCL9): 590 ± 380 nM | EC50 ([2]; primary cells from COPD patients, IFNγ +TNFα (10 ng/ml) 20h, read-out: EC50, release of CXCL10): 1840 ± 400 nM | EC50 ([2]; primary cells from COPD patients, IFNγ +TNFα (10 ng/ml) 20h, read-out: EC50, release of CXCL11): 1920 ± 670 nM | EC50 ([2]; primary cells from non-smokers, IFNγ (10 ng/ml) 20h, read-out: EC50, release of CXCL9): 880 ± 390 nM | EC50 ([2]; primary cells from non-smokers, IFNγ (10 ng/ml) 20h, read-out: EC50, release of CXCL10): 810 ± 150 nM | EC50 ([2]; primary cells from non-smokers, IFNγ (10 ng/ml) 20h, read-out: EC50, release of CXCL11): 660 ± 240 nM | EC50 ([2]; primary cells from non-smokers, IFNγ +TNFα (10 ng/ml) 20h, read-out: EC50, release of CXCL9): 610 ± 260 nM | EC50 ([2]; primary cells from non-smokers, IFNγ +TNFα (10 ng/ml) 20h, read-out: EC50, release of CXCL10): 2720 ± 360 nM | EC50 ([2]; primary cells from non-smokers, IFNγ +TNFα (10 ng/ml) 20h, read-out: EC50, release of CXCL11): 1850 ± 670 nM | EC50 ([2]; primary cells from smokers, IFNγ (10 ng/ml) 20h, read-out: EC50, release of CXCL9): 550 ± 90 nM | EC50 ([2]; primary cells from smokers, IFNγ (10 ng/ml) 20h, read-out: EC50, release of CXCL10): 1280 ± 360 nM | EC50 ([2]; primary cells from smokers, IFNγ (10 ng/ml) 20h, read-out: EC50, release of CXCL11): 780 ± 160 nM | EC50 ([2]; primary cells from smokers, IFNγ +TNFα (10 ng/ml) 20h, read-out: EC50, release of CXCL9): 350 ± 260 nM | EC50 ([2]; primary cells from smokers, IFNγ +TNFα (10 ng/ml) 20h, read-out: EC50, release of CXCL10): 1880 ± 410 nM | EC50 ([2]; primary cells from smokers, IFNγ +TNFα (10 ng/ml) 20h, read-out: EC50, release of CXCL11): 870 ± 130 nM | effect on expression of CXCL9, CXCL10 and CXCL11 (mRNA) [3]: suppressed expression of CXCL9, CXCL10 and CXCL11 in a concentration dependent manner | IC50 [4]: 11400 ± 9000 nM

CCc1cc(O)ccc1-c1ccc2c(-c3nc4ccccc4[nH]3)n[nH]c2c1 [PF1367550, 4-(3-(1H-benzo[d]imidazol-2-yl)-1H-indazol-6-yl)-3-ethylphenol]
effect on STAT-3 binding to DNA [1]: suppressed | IC50 ([2]; Homo sapiens, Epithelial cell, IFNγ (10ng/ml) 20h, read-out: IC50, release of CXCL9): 8.4 ± 1.3 nM | IC50 ([2]; Homo sapiens, Epithelial cell, IFNγ (10ng/ml) 20h, read-out: IC50, release of CXCL10): 10.4 ± 1.7 nM | IC50 ([2]; Homo sapiens, Epithelial cell, IFNγ (10ng/ml) 20h, read-out: IC50, release of CXCL11): 7 ± 0.9 nM | IC50 ([2]; Homo sapiens, Epithelial cell, IFNγ+TNFα (10ng/ml) 20h, read-out: IC50, release of CXCL9): 17.6 ± 3 nM | IC50 ([2]; Homo sapiens, Epithelial cell, IFNγ+TNFα (10ng/ml) 20h, read-out: IC50, release of CXCL10): 24.3 ± 2.4 nM | IC50 ([2]; Homo sapiens, Epithelial cell, IFNγ+TNFα (10ng/ml) 20h, read-out: IC50, release of CXCL11): 14.5 ± 2.4 nM | EC50 ([2]; Homo sapiens, Epithelial cell, primary cells from COPD patients, IFNγ (10 ng/ml) 20h, read-out: EC50, release of CXCL9): 7.4 ± 1.3 nM | EC50 ([2]; Homo sapiens, Epithelial cell, primary cells from COPD patients, IFNγ (10 ng/ml) 20h, read-out: EC50, release of CXCL10): 7.1 ± 1.3 nM | EC50 ([2]; Homo sapiens, Epithelial cell, primary cells from COPD patients, IFNγ (10 ng/ml) 20h, read-out: EC50, release of CXCL11): 6.3 ± 1.4 nM | EC50 ([2]; Homo sapiens, Epithelial cell, primary cells from COPD patients, IFNγ +TNFα (10 ng/ml) 20h, read-out: EC50, release of CXCL9): 20.8 ± 4.8 nM | EC50 ([2]; Homo sapiens, Epithelial cell, primary cells from COPD patients, IFNγ +TNFα (10 ng/ml) 20h, read-out: EC50, release of CXCL10): 29.1 ± 3.5 nM | EC50 ([2]; Homo sapiens, Epithelial cell, primary cells from COPD patients, IFNγ +TNFα (10 ng/ml) 20h, read-out: EC50, release of CXCL11): 16.7 ± 4.1 nM | EC50 ([2]; Homo sapiens, Epithelial cell, primary cells from non-smokers, IFNγ (10 ng/ml) 20h, read-out: EC50, release of CXCL9): 9.73 ± 3.5 nM | EC50 ([2]; Homo sapiens, Epithelial cell, primary cells from non-smokers, IFNγ (10 ng/ml) 20h, read-out: EC50, release of CXCL10): 12.8 ± 5.6 nM | EC50 ([2]; Homo sapiens, Epithelial cell, primary cells from non-smokers, IFNγ (10 ng/ml) 20h, read-out: EC50, release of CXCL11): 8.5 ± 0.7 nM | EC50 ([2]; Homo sapiens, Epithelial cell, primary cells from non-smokers, IFNγ +TNFα (10 ng/ml) 20h, read-out: EC50, release of CXCL9): 14.1 ± 7.1 nM | EC50 ([2]; Homo sapiens, Epithelial cell, primary cells from non-smokers, IFNγ +TNFα (10 ng/ml) 20h, read-out: EC50, release of CXCL10): 20.3 ± 5.1 nM | EC50 ([2]; Homo sapiens, Epithelial cell, primary cells from non-smokers, IFNγ +TNFα (10 ng/ml) 20h, read-out: EC50, release of CXCL11): 13.7 ± 6.7 nM | EC50 ([2]; Homo sapiens, Epithelial cell, primary cells from smokers, IFNγ (10 ng/ml) 20h, read-out: EC50, release of CXCL9): 9 ± 3 nM | EC50 ([2]; Homo sapiens, Epithelial cell, primary cells from smokers, IFNγ (10 ng/ml) 20h, read-out: EC50, release of CXCL10): 12.3 ± 0.36 nM | EC50 ([2]; Homo sapiens, Epithelial cell, primary cells from smokers, IFNγ (10 ng/ml) 20h, read-out: EC50, release of CXCL11): 6.8 ± 1.9 nM | EC50 ([2]; Homo sapiens, Epithelial cell, primary cells from smokers, IFNγ +TNFα (10 ng/ml) 20h, read-out: EC50, release of CXCL9): 15.3 ± 4.8 nM | EC50 ([2]; Homo sapiens, Epithelial cell, primary cells from smokers, IFNγ +TNFα (10 ng/ml) 20h, read-out: EC50, release of CXCL10): 20.2 ± 3.6 nM | EC50 ([2]; Homo sapiens, Epithelial cell, primary cells from smokers, IFNγ +TNFα (10 ng/ml) 20h, read-out: EC50, release of CXCL11): 11.8 ± 2.9 nM | fold more potent than PF956980, CXCR3 chemokine release ([2]; pooled human primary airway epithelial cells): ~ 80 fold | effect on expression of CXCL9, CXCL10 and CXCL11 (mRNA) [3]: completely inhibited | IC50 for IL-6 release, fold greater than for inhibition of CXCR3 chemokine release [4]: ~ 50 fold | IC50 ([4]; Homo sapiens, Epithelial cell): 800 ± 200 nM
